Like-named read-outs stand apart in the source and are kept apart here.
How the values were obtained:
Experiment in all cases: cell-based
[1] = target: T1, Kappa opioid receptor (KOR) (Homo sapiens, UniProt P41145)
[2] = target: T1, Kappa opioid receptor (KOR); remark: listed apart in the source
[3] = target: T1, Kappa opioid receptor (KOR); remark: listed apart in the source

T1 sequence (P41145 whole entry): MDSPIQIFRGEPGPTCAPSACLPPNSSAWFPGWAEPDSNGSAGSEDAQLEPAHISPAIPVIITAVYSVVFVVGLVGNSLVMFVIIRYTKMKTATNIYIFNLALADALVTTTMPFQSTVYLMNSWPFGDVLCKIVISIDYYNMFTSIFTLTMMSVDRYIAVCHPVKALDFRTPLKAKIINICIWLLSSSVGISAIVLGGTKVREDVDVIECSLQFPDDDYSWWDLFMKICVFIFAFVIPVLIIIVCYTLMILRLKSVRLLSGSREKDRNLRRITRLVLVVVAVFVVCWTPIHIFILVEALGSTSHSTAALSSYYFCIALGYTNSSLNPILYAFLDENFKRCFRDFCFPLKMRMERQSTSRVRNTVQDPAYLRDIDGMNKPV

Row | Molecule | EC50 ([2]; EC50 Potency Score) [µM] | EC50 ([3]; EC50 Potency Score) [µM] | further results
1 | COC(=O)[C@@H]1C[C@H](OC(C)=O)C(=O)[C@@H]2[C@@]3(C)C[C@@H](c4ccoc4)CC(=O)[C@@H]3CC[C@]21C (racemic) [ALB-230937, O6C-20-nor-SalA racemic mixture] | < 0.001 | < 0.001 | EC50 [1]: < 0.0001 µM; inhibition at 0.0001 µM ([1]; read-out: inhibition of cAMP production): 100%
2 | COC(=O)[C@@H]1C[C@@H](OC(C)=O)C(=O)[C@@H]2[C@@]3(C)C[C@@H](c4ccoc4)CC(=O)[C@@H]3CC[C@]21C [ALB-230935, 2-cpi-O6C-20-nor-SalA] | 0.001 to 0.1 | 0.001 to 0.1 | 
3 | COCO[C@H]1C[C@@H](C(=O)OC)[C@]2(C)CC[C@H]3C(=O)C[C@H](c4ccoc4)C[C@@H]3[C@H]2C1=O [ALB-231273] | < 0.001 | < 0.001 | EC50 ([2]; estimated EC50): < 0.0001 µM; EC50 ([3]; estimated EC50): < 0.0001 µM
4 | COC(=O)[C@@H]1C[C@H](O)C(=O)[C@@H]2[C@H]3C[C@@H](c4ccoc4)CC(=O)[C@@H]3CC[C@]21C [ALB-231274, O6C-20-nor-SalB] | 1 to 10 | 0.1 to 1 | 
5 | COC(=O)[C@@H]1C[C@H](OC(=O)/C=C/c2ccccc2)C(=O)[C@@H]2[C@H]3C[C@@H](c4ccoc4)CC(=O)[C@@H]3CC[C@]21C [ALB-231360] | 1 to 10 | 1 to 10 | EC50 [1]: ~46 µM
6 | O6C-20-nor-SalA Enantiomer A [ALB-230936] |  |  | EC50 ([2]; read-out: EC50 Potency Score): < 0.001 µM; EC50 ([3]; read-out: EC50 Potency Score): < 0.001 µM
7 | O6C-20-nor-SalA Enantiomer B [ALB-230932] |  |  | EC50 ([2]; read-out: EC50 Potency Score): 0.001 to 0.1 µM; EC50 ([3]; read-out: EC50 Potency Score): 0.001 to 0.1 µM

Reference: patent US20250100987A1 (priority 2021, published 2025)
